Reference: EP4461368A1, “5H-PYRROLO[3,2-B:5,4-C']DIPYRIDINE DERIVATIVES AND 6,7,8,9-TETRAHYDRO-5H-PYRROLO[3,2-B:5,4-C']DIPYRIDINE DERIVATIVES USEFUL IN THE TREATMENT OF CANCER” (Institut Regional du Cancer de Montpellier, priority 2023, dated 2024)

Columns and labels:
Type in all cases: cell-based
Chromatin-MDM2 = target: T1, Chromatin-MDM2 (Homo sapiens, UniProt Q00987); test: MDM2 degradation by western blot and immunofluorescence, chromatin-bound MDM2; conditions: degradation efficacy, cells collected 18 hours after compound addition
T1 construct: endogenous in cells; host or cells: IB111 liposarcoma cells
T1 sequence (Q00987 whole entry): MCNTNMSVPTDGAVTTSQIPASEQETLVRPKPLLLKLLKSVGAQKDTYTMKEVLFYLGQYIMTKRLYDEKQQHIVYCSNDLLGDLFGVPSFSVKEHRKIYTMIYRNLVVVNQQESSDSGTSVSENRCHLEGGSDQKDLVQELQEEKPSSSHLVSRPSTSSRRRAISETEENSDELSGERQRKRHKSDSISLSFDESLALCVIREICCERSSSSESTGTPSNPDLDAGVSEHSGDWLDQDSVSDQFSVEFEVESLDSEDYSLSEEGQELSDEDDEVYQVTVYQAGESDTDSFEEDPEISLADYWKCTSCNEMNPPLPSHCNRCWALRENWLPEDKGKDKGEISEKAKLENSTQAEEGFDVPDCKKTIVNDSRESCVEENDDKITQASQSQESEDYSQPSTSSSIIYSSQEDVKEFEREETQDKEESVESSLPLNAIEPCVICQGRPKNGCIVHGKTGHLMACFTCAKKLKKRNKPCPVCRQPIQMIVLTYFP
Description: (§1) MDM2 degradation is measured by western blot and immunofluorescence.
(§2) Cells were seeded in 6-well plates (Sarsted) in complete DMEM medium as to obtain triplicates for each condition (500 000 cells/well). After 24 hours, the compounds were added to the cells. Then, 18 hours later cells were collected for western blotting or immunofluorescence. • Western Blot: Cells were collected in Laemmli buffer, boiled and analyzed in 8% acrylamide gel. • Immunofluorescence: Cancer cells were fixed with paraformaldehyde (PFA) 4% for 15 minutes then permeabilized for 15 minutes at RT with phosphate-buffered saline (PBS) Triton 0.1% and blocked with Phosphate buffered saline-[…] (PBS-BSA) 0.3% for 1 hour at RT before overnight incubation at 4 °C with an anti- mouse monoclonal antibody against MDM2 (MABE340 Millipore). Immunodetection was performed using an Alexa 488-conjugated anti-mouse IgG antibody (Thermo Fisher) for 45 minutes at RT. Cover glasses were mounted with Mowiol (Biovalley) and DAPI (Sigma) before analysis on a Zeiss apotome.

[1] = system: cancer cells exhibiting recruitment of MDM2 to chromatin (IB111); test: Cell survival, Sulforhodamine B assay (SRB assay), cells with recruitment of MDM2 to chromatin
Description: (§3) Cell survival after MDM2 inhibitor treatment (IC50) was determined using the Sulforhodamine B assay (SRB assay).
(§4) Cells were seeded in 96-well plates (Sarsted) in complete DMEM medium as to obtain triplicates for each condition (5 000 cells/well). After 24 hours, serial dilutions of the indicated compounds were added to the cells. […] Fixed SRB was finally dissolved in 10 mM Tris-HCl solution and 560nm absorbance was read using a PHERAstar FSX plate reader.

Cytoplasmic- MDM2 = target: T2, Cytoplasmic- MDM2 (Homo sapiens, UniProt Q00987); test: MDM2 degradation by western blot and immunofluorescence, cytoplasmic MDM2; conditions: degradation efficacy, cells collected 18 hours after compound addition
T2 construct: endogenous in cells; host or cells: hPac / ZR75.1 cancer cells
T2 sequence (Q00987 whole entry): as above
Description: as §1, §2

[2] = system: cancer cells not exhibiting recruitment of MDM2 to chromatin (Hpac/ZR75.1); test: Cell survival, Sulforhodamine B assay (SRB assay), cells without recruitment of MDM2 to chromatin; conditions: Hpac/ZR75.1 cells, treated for 72 hours with increasing concentrations
Description: as §3, §4

[3] = treated with increasing concentrations

| Chromatin-MDM2 degradation (Chromatin-MDM2) | Compound | IC50 ([1]; treated for 72 hours with increasing concentrations) | Cytoplasmic- MDM2 degradation (Cytoplasmic- MDM2) | efficiency on cancer cells not exhibiting recruitment of MDM2 to chromatin [2] | IC50 [1, 3] |
| --- | --- | --- | --- | --- | --- |
| +++ (+++ ≥ 80%) | 2-methoxy-6-(5,6,7,8-tetrahydronaphthalen-1-yl)-5H-pyrrolo[3,2-b:5,4-c'] dipyridine [Compound 14] | < 500 nM | - (<25%: no degradation: indicated "-" in the table) | not efficient | – |
| +++ (+++ ≥ 80%) | COc1ccc2[nH]c3c(-c4cccc5ccccc45)nccc3c2n1 [Compound 1, 2-methoxy-6-(naphthalen-1-yl)-5H-pyrrolo[3,2-b:5,4-c']dipyridine] | – | - (<25%: no degradation: indicated "-" in the table) | not efficient | < 500 nM |
| + (25%≤+<40%) | COc1ccc2[nH]c3c(-c4ccnc5nccnc45)nccc3c2n1 [Compound 3, 2-methoxy-6-(pyrido[2,3-b]pyrazin-8-yl)-5H-pyrrolo[3,2-b:5,4-c'] dipyridine] | – | - (<25%: no degradation: indicated "-" in the table) | – | – |
| +++ (+++ ≥ 80%) | COc1ccc2[nH]c3c(-c4cccc5ccccc45)nccc3c2n1.Cl [Compound 4, 2-methoxy-6-(naphthalen-1-yl)-5H-pyrrolo[3,2-b:5,4-c']dipyridine hydrochloride] | – | - (<25%: no degradation: indicated "-" in the table) | not efficient | – |
| + (25%≤+<40%) | COc1ccc2[nH]c3c(-c4ccnc5ccccc45)nccc3c2n1 [Compound 6, 2-methoxy-6-(quinolin-4-yl)-5H-pyrrolo[3,2-b:5,4-c']dipyridine] | – | - (<25%: no degradation: indicated "-" in the table) | – | – |
| +++ (+++ ≥ 80%) | COc1ccc2[nH]c3c(-c4cccc5ccccc45)nccc3c2n1.O=C(O)/C=C/C(=O)O [Compound 10, 2-methoxy-6-(naphthalen-1-yl)-5H-pyrrolo[3,2-b:5,4-c']dipyridine fumarate] | – | - (<25%: no degradation: indicated "-" in the table) | not efficient | – |
| +++ (+++ ≥ 80%) | COc1ccc2[nH]c3c(-c4cccc5ccccc45)nccc3c2n1.O=C(O)CC(O)(CC(=O)O)C(=O)O [Compound 11, 2-methoxy-6-(naphthalen-1-yl)-5H-pyrrolo[3,2-b:5,4-c']dipyridine 2-hydroxypropane-1,2,3-tricarboxylate] | – | - (<25%: no degradation: indicated "-" in the table) | not efficient | – |
| ++ (40%≤++<80%) | COc1ccc2[nH]c3c(-c4cccc5ccccc45)nccc3c2n1.O=P(O)(O)O [Compound 12, 2-methoxy-6-(naphthalen-1-yl)-5H-pyrrolo[3,2-b:5,4-c']dipyridine phosphate] | – | - (<25%: no degradation: indicated "-" in the table) | not efficient | – |
| ++ (40%≤++<80%) | COc1ccc2[nH]c3c(-c4cccc5ccccc45)nccc3c2n1.O=S(=O)(O)O [Compound 13, 2-methoxy-6-(naphthalen-1-yl)-5H-pyrrolo[3,2-b:5,4-c']dipyridine sulfate] | – | - (<25%: no degradation: indicated "-" in the table) | not efficient | – |
| ++ (40%≤++<80%) | COc1ccc2[nH]c3c(-c4ccc(F)c5ccccc45)nccc3c2n1 [Compound 15, 6-(4-fluoronaphthalen-1-yl)-2-methoxy-5H-pyrrolo [3,2-b: 5,4-c'] dipyridine] | – | - (<25%: no degradation: indicated "-" in the table) | not efficient | < 500 nM |
| +++ (+++ ≥ 80%) | COc1ccc2[nH]c3c(-c4cccc5c4CCCC5)nccc3c2n1.Cl [Compound 16, 2-methoxy-6-(5,6,7,8-tetrahydronaphthalen-1-yl)-5H-pyrrolo[3,2-b:5,4-c']dipyridine hydrochloride] | – | - (<25%: no degradation: indicated "-" in the table) | not efficient | < 500 nM |
| + (25%≤+<40%) | COc1ccc2[nH]c3c(-c4ccc(F)c5ccccc45)nccc3c2n1.Cl [Compound 17, 6-(4-fluoronaphthalen-1-yl)-2-methoxy-5H-pyrrolo [3,2-b: 5,4-c']dipyridine hydrochloride] | – | - (<25%: no degradation: indicated "-" in the table) | – | – |
